# Laboratory results taken from patent EP0068408A1 (priority 1981, dated 1983).
# Like-named read-outs stand apart in the source and are kept apart here.
# Tests used:
# [1] = test system: parainfluenza virus type 3; design: species or system mice; details: mouse, in vivo, po
# coxsackie virus B1 = test system: coxsackie virus B1; design: species or system mice; details: mouse, in vivo, po
# influenza virus B/GL = assay: animal or person; format: in vivo, mice; details: for survival rates of the treated groups as compared with the control: result in words, Table 7
# [2] = Acute toxicity in mice (LD50); format: in vivo; details: ddY male mice, suspended in 5% Arabic gum solution, observed for 7 days; for LD50 at 168 h: mouse, in vivo
# Experimental: Experimental Example 7: Acute Toxicity in Mice
# Each compound of the invention was suspended in 5% Arabic gum solution and given orally (p.o.) or intraperitoneally (i.p.) to groups of ten ddY male mice weighed from 24 to 26 g at the dosage volume of 10 ml/kg. […] LD50 was determined according to the method of Wilcoxon and Litchfield.
# influenza virus A/WSN = assay: animal or person; format: in vivo, mice; details: in Mus musculus, 360 h, read-out: Survival rate
# [3] = unidentified influenza virus, in Mus musculus, po, 360 h, read-out: Survival rate
# [4] = ip, i.p., read-out: LD50 value, Intraperitoneal administration
# [5] = po, p.o., read-out: LD50 value, Oral administration
Structure (SMILES),Survival rate ([1]; 30 mg/kg) [%],Survival rate ([1]; 100 mg/kg) [%],Survival rate (coxsackie virus B1; 300 mg/kg) [%],Survival rate (coxsackie virus B1; 1000 mg/kg) [%],survival rates of the treated groups as compared with the control (influenza virus B/GL),responders at 30 mg/kg (influenza virus B/GL; [3]) [%],responders at 300 mg/kg (influenza virus B/GL; [3]) [%],"LD50 value, Intraperitoneal administration ([2]; i.p.)","LD50 value, Oral administration ([2]; p.o.)",responders at 100 mg/kg (influenza virus B/GL; [3]) [%],"LD50 at 168 h [2, 4] [mg/kg]","LD50 at 168 h [2, 5] [mg/kg]",responders at 30 mg/kg (influenza virus A/WSN; po) [%],responders at 100 mg/kg (influenza virus A/WSN; po) [%],responders at 10 mg/kg (influenza virus A/WSN) [%],responders at 30 mg/kg (influenza virus A/WSN; ip) [%]
CCCCOC(=O)c1ccc(Br)c(S(N)(=O)=O)c1 [Compound 30],40,60,40,70,extremely excellent activity,60,70,">1,000 mg/kg",">3,000 mg/kg",–,–,–,–,–,–,–
CCCCOC(=O)c1cc(S(N)(=O)=O)c(Cl)cc1Cl [Compound 35],30,60,40,80,extremely excellent activity,40,–,–,–,60,> 1000,> 3000,40,60,–,–
CCCCCCCCOC(=O)c1cc(S(N)(=O)=O)c(Cl)cc1Cl [Compound 37],40,70,50,80,extremely excellent activity,50,–,–,–,80,> 1000,> 3000,50,70,50,60
